Earlier results, collected in US20240108043A1, “NONNUTRITIVE SWEETENER COMPOSITIONS, METHODS OF MANUFACTURE AND USES THEREOF” (priority 2022, published 2024).
Read-outs that look alike come from different tables or passages of the source. One block for each compound: values may come before it.

Legend:
[1] = for Sweetness intensity relative to sucrose: times the sweetness intensity of sucrose
[2] = system: TNF-Alpha and Interleukin 1-Beta; conditions: concentration of 1 mM
[3] = in vivo
[4] = diabetic human subjects, daily 20 g for 14 days
[5] = 500 mg, two years, mild hypertension patients
[6] = not given; remark: listed apart in the source

Dose causing laxative affects (single bolus): greater than 20 grams
Compound: OC[C@@H](O)[C@@H](O)[C@H](O)[C@H](O)CO [mannitol]

Compound: O=C(CO)[C@@H](O)[C@H](O)[C@H](O)CO [fructose, D-Fructose]
Sweetness intensity relative to sucrose [1]: approximately 1.7 times

Compound: OC[C@@H](O)[C@@H](O[C@@H]1O[C@H](CO)[C@H](O)[C@H](O)[C@H]1O)[C@H](O)[C@@H](O)CO [lactitol]
Incidence of gastrointestinal distress compared to equal doses of sucrose (doses of 30-40 grams): significantly (p<0.01) increased

Compound: O=C(CO)[C@H](O)[C@H](O)[C@H](O)CO [allulose, D-ribo-2-hexulose]
Sweetness intensity relative to sucrose [1]: approximately 0.7 times

Compound: C=C1C[C@@]23CC[C@H]4[C@@](C)(CCC[C@@]4(C)C(=O)O)[C@@H]2CC[C@]1(O)C3 [steviol]
Endotoxin release of TNF-Alpha and Interleukin 1-Beta [2]: significantly suppressed

Excreted through urine with molecular structure unchanged [3]: Approximately 90%
Compound: OC[C@@H](O)[C@@H](O)CO [erythritol, (2R,3S)-Butan-1,2,3,4-tetrol]
Sweetness, as sweet as sucrose ([1]; percent of sucrose sweetness): 60-70%
Sweetness intensity relative to sucrose [1]: 0.6-0.7 times
Effect on blood glucose insulin [4]: no effect

Compound: C=C1C[C@@]23CC[C@H]4[C@@](C)(CCC[C@@]4(C)C(=O)O[C@@H]4O[C@H](CO)[C@@H](O)[C@H](O)[C@H]4O)[C@@H]2CC[C@]1(O[C@@H]1O[C@H](CO)[C@@H](O)[C@H](O)[C@H]1O[C@@H]1O[C@H](CO)[C@@H](O)[C@H](O)[C@H]1O)C3 [stevioside]
Endotoxin release of TNF-Alpha and Interleukin 1-Beta [2]: significantly suppressed
Diastolic and systolic blood pressure [5]: significantly reduced
Blood glucose ([6]; 200 mg, sixty healthy volunteers): effectively reduce blood glucose
Postprandial blood glucose levels ([6]; 1 gram vs 1 gram maize starch, type-2 diabetes patients, 30 and 240 minutes after a meal): reduced postprandial blood glucose levels

Dose at which laxative affect is seen (men): 170 mg/kg
Dose at which laxative affect is seen (women): 240 mg/kg
Compound: OC[C@@H](O)[C@@H](O)[C@H](O)[C@@H](O)CO [sorbitol]
